What was measured:
[1] = Agonist activity at ER in human MCF7:WS8 cells assessed as increase in cell growth by measuring DNA level after 7 days by fluorescence analysis
[2] = Antagonist activity at ER in human MCF7:WS8 cells assessed as inhibition of estradiol-induced cell growth by measuring DNA level after 7 days by fluorescence analysis

Compound	EC50 [1] [nM]	IC50 [2] [nM]
CCOc1ccc(C2=C(c3ccccc3)CCCc3cc(O)ccc32)cc1	0.3	–
CN(C)CCOc1ccc2c(c1)CCCC(c1ccccc1)=C2c1ccc(O)cc1	15	–
CNCCOc1ccc2c(c1)CCCC(c1ccccc1)=C2c1ccc(O)cc1	20	–
CCC(=C(c1ccc(O)cc1)c1ccc(O)cc1)c1ccc(O)cc1	0.15	–
CCOc1ccc2c(c1)CCCC(c1ccccc1)=C2c1ccc(OCCN(C)C)cc1	–	3
CNCCOc1ccc(C2=C(c3ccccc3)CCCc3cc(O)ccc32)cc1	–	3
CCC(=C(c1ccc(O)cc1)c1ccc(O)cc1)c1ccccc1 [1,1-bis(4,4'-hydroxyphenyl)-2-phenylbut-1-ene]	0.015	–

Results, then the compound that gave them:

EC50 [1] [nM]	IC50 [2] [nM]	Compound
0.3	–	COc1ccc(C2=C(c3ccccc3)CCCc3cc(O)ccc32)cc1
4	–	COc1ccc2c(c1)CCCC(c1ccccc1)=C2c1ccc(O)cc1
2.7	–	CCOc1ccc2c(c1)CCCC(c1ccccc1)=C2c1ccc(O)cc1
